For orientation: TGI means the concentration at which net growth stops. Read a high TGI as less potent growth arrest. As usually defined, the GI50 is the concentration that inhibits growth by half.

The text below walks through data of PubChem BioAssay (NCI).

Test systems include MDA-N; DLD-1 colon; DMS 273 small cell lung; HOP-18 NSCLC; KM20L2 colon; M19-MEL melanoma; RXF-631 renal; SNB-78 CNS; XF 498 CNS.
Test in all cases: DTP human tumour cell line panel, 48 h

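Tested at 5 concentrations; 48 h exposure; 96-well plates; endpoints linearly interpolated, else capped at highest concentration. GI50: concentration for 50% inhibition of growth. Definition used: TGI = concentration required for complete inhibition of growth.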

Regarding `N[C@H]1CCC[C@@H](O)C1O` (stereo partly specified), the TGI in the assay with MDA-N was greater than 100 µM.
`COc1ccc2nc3cc(Cl)ccc3c(Sc3ccc(N)cc3)c2c1`: the TGI in the assay with DLD-1 colon was found to be 19.8 µM; in the assay on DMS 273 small cell lung, 23.5 µM; in the assay with HOP-18 NSCLC, 25.3 µM; with KM20L2 colon, 17.9 µM; with M19-MEL melanoma it was 20.2 µM; with RXF-631 renal it was 34.4 µM. The TGI in the assay on SNB-78 CNS is 34 µM; with XF 498 CNS it was 27.5 µM.
`COc1ccc(C2=C(OC(C)=O)c3cccn3-c3ccc(Cl)cc3S2)cc1` returned a TGI in the assay with MDA-N of 4.51 µM.
Turning to `O=C1c2ccccc2C(=O)c2c1ccc1conc21`, the TGI amounted to 7.15 µM with DLD-1 colon; 8.17 µM in the assay on DMS 273 small cell lung; 26.2 µM in the assay on HOP-18 NSCLC; 28.8 µM in the assay with KM20L2 colon; 3.09 µM in the assay on M19-MEL melanoma; 1.41 µM in the assay with MDA-N. Further, the TGI is greater than 26.5 µM in the assay on RXF-631 renal and 10.3 µM in the assay with SNB-78 CNS.
As for `Cn1c(=O)nc2n(-c3ccc(Br)cc3)c3ccccc3nc-2c1=O`, the TGI in the assay with DLD-1 colon amounted to 36.3 µM; in the assay with DMS 273 small cell lung, 14 µM; in the assay on HOP-18 NSCLC, 18.8 µM; with KM20L2 colon, 8.74 µM; in the assay on M19-MEL melanoma it was 2.93 µM; in the assay with RXF-631 renal, 29.8 µM. In addition, the TGI stood at 35.1 µM with SNB-78 CNS and 25 µM in the assay with XF 498 CNS.
With `O=C1c2ccccc2C(=O)N1c1ccc(Cc2ccc(N3C(=O)c4ccccc4C3=O)cc2)cc1`, the TGI with MDA-N was greater than 100 µM.
`C=CCCC(O)c1cc(C)c(O)c(C)c1` (stereo unspecified): the TGI in the assay on HOP-18 NSCLC, in the assay with KM20L2 colon, with M19-MEL melanoma and in the assay with SNB-78 CNS was greater than 100 µM throughout.
As for `CCCCC[C@@H]1CCCC2NC(CCCCCO[Si](c3ccccc3)(c3ccccc3)C(C)(C)C)CCC21` (stereo partly specified), the TGI in the assay on DLD-1 colon was 28.1 µM; with DMS 273 small cell lung, 32.4 µM; in the assay with KM20L2 colon, 23.8 µM; in the assay with M19-MEL melanoma it was 31.8 µM; in the assay on RXF-631 renal, 27.7 µM; with SNB-78 CNS it was 30.2 µM.
Compound `COc1ccc([N+](=O)[O-])c2c(NCCCN(C)C)c(C)c(C)nc12` returned a TGI in the assay on MDA-N greater than 100 µM.
For `C=C1C(=O)OC2CC1C(OC(=O)/C=C/c1ccccc1)C/C(C)=C/CC/C(C)=C/CCC2(C)O` (stereo unspecified), the TGI with MDA-N came to 2.67 µM.
For the compound `COC1CCCc2c(OC(C)=O)ccc(OC(C)=O)c21` (stereo unspecified), the TGI in the assay on KM20L2 colon and in the assay on SNB-78 CNS was greater than 100 µM in each case.
For `COc1ccc2c(=O)c(-c3cc(OC)c(OC)cc3OC)coc2c1`, the TGI with DLD-1 colon, in the assay with DMS 273 small cell lung, in the assay on M19-MEL melanoma, in the assay on MDA-N, in the assay with RXF-631 renal and in the assay on SNB-78 CNS was greater than 100 µM throughout. In the assay with XF 498 CNS, this compound showed a TGI of 8.07 µM.
Regarding `O=c1[nH]c2nc3ccccc3c(=O)n2nc1Cc1ccccc1`, the TGI in the assay with DLD-1 colon, in the assay on DMS 273 small cell lung, in the assay on KM20L2 colon and with SNB-78 CNS was greater than 100 µM throughout.
`O=C(O)c1cccc([As]=[As]c2cccc(C(=O)O)c2)c1` (stereo unspecified) returned a TGI with MDA-N greater than 100 µM.
On the same count and under the same terms, under `CCN(Cc1cc(Cl)cc(C)c1O)Cc1c(O)ccc2ccccc12` stands 35.8 µM.
Take `N#CN1CC[C@@H]2CC3(CCC2C1)OCCO3` (stereo partly specified): the TGI with DLD-1 colon, with DMS 273 small cell lung, with HOP-18 NSCLC, with KM20L2 colon, with M19-MEL melanoma and in the assay on RXF-631 renal was greater than 100 µM each time. In addition, the TGI in the assay with SNB-78 CNS and with XF 498 CNS was greater than 100 µM throughout.
In the case of `O=C(c1ccc(Cl)cc1Cl)N1CCN(C(=O)c2ccc(Cl)cc2Cl)C1=S`, in the assay with MDA-N, the GI50 was 20 µM and the TGI is 43.8 µM.
Take `O=C(c1ccccc1)c1nc2c(Cl)ccc(Cl)c2cc1C(Br)Br`: the TGI with DLD-1 colon was 2.24 µM; with DMS 273 small cell lung, 3.14 µM; in the assay on HOP-18 NSCLC it was 3.17 µM; in the assay with KM20L2 colon, 2.51 µM; with M19-MEL melanoma, 6.26 µM; in the assay on RXF-631 renal it was 3.86 µM. Also, the TGI in the assay on SNB-78 CNS is 5.94 µM; in the assay with XF 498 CNS it was 2.29 µM.
Turning to `CC(=O)CC[N+](C)(C)C`, the TGI with DLD-1 colon was 35.4 µM; with DMS 273 small cell lung, 53.2 µM; in the assay with HOP-18 NSCLC, 30.5 µM; in the assay with KM20L2 colon, greater than 56.6 µM; in the assay with M19-MEL melanoma, greater than 58.2 µM; in the assay on MDA-N, greater than 100 µM. The TGI is greater than 100 µM with RXF-631 renal and 19.7 µM in the assay with SNB-78 CNS.
As to `C=CC[P@]1(=O)O[C@H](c2ccccc2)C(C)N1C(C)C` (stereo partly specified), the TGI in the assay with DLD-1 colon, with HOP-18 NSCLC, with KM20L2 colon, in the assay with M19-MEL melanoma, in the assay on RXF-631 renal and with XF 498 CNS was greater than 100 µM in each case.
In the case of `COC(=O)NC1(NC(=O)OC)NC(=O)c2ccccc2N1`, the TGI with MDA-N was greater than 100 µM.
In the case of `CCOC(=O)c1ccc(N=Cc2ccc(N(CCC#N)S(=O)(=O)c3ccccc3)cc2C)cc1`, the TGI in the assay with DLD-1 colon, with DMS 273 small cell lung, in the assay on KM20L2 colon, with M19-MEL melanoma, in the assay on RXF-631 renal and in the assay on SNB-78 CNS was greater than 100 µM each time. The compound further yielded a TGI with XF 498 CNS greater than 100 µM.
Take `N.N.N.N.N#N.N#N.[Cl-].[Os+6]`: the GI50 in the assay on DLD-1 colon was greater than 100 µM; in the assay with DMS 273 small cell lung it was greater than 100 µM; in the assay with HOP-18 NSCLC, 23.1 µM; in the assay on KM20L2 colon, greater than 100 µM; with SNB-78 CNS, greater than 100 µM. Further, the TGI with DLD-1 colon, with DMS 273 small cell lung, in the assay on HOP-18 NSCLC, with KM20L2 colon and in the assay with SNB-78 CNS was greater than 100 µM in each case.
Regarding `O=C(O)CCC(O)=C1S(=O)(=O)OCCOS1(=O)=O`, the TGI in the assay on DLD-1 colon, in the assay with DMS 273 small cell lung, with HOP-18 NSCLC, in the assay with KM20L2 colon, with M19-MEL melanoma and with MDA-N was greater than 100 µM throughout. This compound also displayed a TGI in the assay on SNB-78 CNS greater than 100 µM.
As to `Cc1c(C)c2cc3c(=O)c(CCl)coc3c(C)c2oc1=O`, the TGI in the assay with HOP-18 NSCLC, with KM20L2 colon, with M19-MEL melanoma, with RXF-631 renal and in the assay on SNB-78 CNS was greater than 100 µM each time.
